Reference: the NIST ThermoML archive (doi:10.1016/j.jct.2015.04.006)
Numbers after ± are expanded uncertainties.

Assays:
[1] = 100 kPa, Liquid; for speed of sound: Frequency=3 MHz, Sing-around technique in a fixed-path interferometer; for mass density: Vibrating tube method
[2] = mn = molality of the nth substance listed, in mol/kg; settings: 100 kPa, Liquid, m2 = 0; for speed of sound: Frequency=3 MHz, Sing-around technique in a fixed-path interferometer; for mass density: Vibrating tube method

SMILES	speed of sound ([1]; 298.15 K)	mass density ([1]; 298.15 K)	speed of sound ([1]; 303.15 K)	mass density ([1]; 303.15 K)	speed of sound ([1]; 308.15 K)	mass density ([1]; 308.15 K)	speed of sound ([1]; 313.15 K)	mass density ([1]; 313.15 K)	speed of sound ([1]; 318.15 K)	mass density ([1]; 318.15 K)	speed of sound ([2]; 298.15 K)	mass density ([2]; 298.15 K)	speed of sound ([2]; 303.15 K)	mass density ([2]; 303.15 K)	speed of sound ([2]; 308.15 K)	mass density ([2]; 308.15 K)	speed of sound ([2]; 313.15 K)	mass density ([2]; 313.15 K)	speed of sound ([2]; 318.15 K)	mass density ([2]; 318.15 K)
C[S+](C)[O-] [dimethyl sulfoxide]	1484.6 ± 1.2 m/s	1095.28 ± 0.21 kg/m3	1467.7 ± 1.2 m/s	1090.26 ± 0.26 kg/m3	1450.8 ± 1.2 m/s	1085.24 ± 0.24 kg/m3	1434.1 ± 1.2 m/s	1080.22 ± 0.24 kg/m3	1417.5 ± 1.2 m/s	1075.21 ± 0.26 kg/m3	–	–	–	–	–	–	–	–	–	–
C[S+](C)[O-] [dimethyl sulfoxide] + CCCCCCCC[N+]1(C)CCOCC1.O=S(=O)([N-]S(=O)(=O)C(F)(F)F)C(F)(F)F	–	–	–	–	–	–	–	–	–	–	1484.6 ± 1.2 m/s	1095.28 ± 0.21 kg/m3	1467.7 ± 1.2 m/s	1090.26 ± 0.21 kg/m3	1450.8 ± 1.2 m/s	1085.24 ± 0.21 kg/m3	1434.1 ± 1.2 m/s	1080.22 ± 0.21 kg/m3	1417.5 ± 1.2 m/s	1075.21 ± 0.21 kg/m3
C[S+](C)[O-] [dimethyl sulfoxide] + CCCC[N+]1(C)CCOCC1.O=S(=O)([N-]S(=O)(=O)C(F)(F)F)C(F)(F)F	–	–	–	–	–	–	–	–	–	–	1484.6 ± 1.2 m/s	1095.28 ± 0.24 kg/m3	1467.7 ± 1.2 m/s	1090.26 ± 0.24 kg/m3	1450.8 ± 1.2 m/s	1085.24 ± 0.24 kg/m3	1434.1 ± 1.2 m/s	1080.22 ± 0.24 kg/m3	1417.5 ± 1.2 m/s	1075.21 ± 0.24 kg/m3
C[S+](C)[O-] [dimethyl sulfoxide] + CC[N+]1(C)CCOCC1.O=S(=O)([N-]S(=O)(=O)C(F)(F)F)C(F)(F)F	–	–	–	–	–	–	–	–	–	–	1484.6 ± 1.2 m/s	1095.28 ± 0.26 kg/m3	1467.7 ± 1.2 m/s	1090.26 ± 0.26 kg/m3	1450.8 ± 1.2 m/s	1085.24 ± 0.26 kg/m3	1434.1 ± 1.2 m/s	1080.22 ± 0.26 kg/m3	1417.5 ± 1.2 m/s	1075.21 ± 0.26 kg/m3
